# Earlier results as cited in patent publication US20070232589A1, “Pharmaceutical Composition And Method For Treating Neurodegenerative Disorders” (Myriad Genetics, Incorporated, priority 2004, published 2007).
# Read-outs that look alike come from different tables or passages of the source.
# Tests used:
# [1] = in vivo
# [2] = clinical trial; rofecoxib 25 mg daily
# [3] = patients having mild cognitive impairment
# [4] = in vivo excitotoxic model
# Aβ42 [5] = conditions: transgenic mouse model
# Aβ42 [6] = conditions: CHO cells
# [7] = 50 mg and 100 mg doses, human subjects
compound,measurement,setting,value
CC12CC3CC(C)(C1)CC(N)(C3)C2 [memantine],efficacy in treating mild-to-moderate AD,[1],showed efficacy
CS(=O)(=O)c1ccc(C2=C(c3ccccc3)C(=O)OC2)cc1 [rofecoxib],efficacy for treating AD,[2],failed to show efficacy
same,prevention of development of Alzheimer's disease,[3],failed to prevent the development of Alzheimer's disease
same,patients who developed AD,[3]; placebo 4.5%,6.4%
same,neuroprotection,[4],provides neuroprotection
C[C@@H](C(=O)O)c1ccc(-c2ccccc2)c(F)c1 [(R)-2-(2-fluoro-4-biphenylyl)propionic acid],Aβ42 lowering,Aβ42 [5],lower Aβ42
same,inhibition of COX activity,COX,negligibly inhibits COX activity
same,Aβ42 lowering,Aβ42 [6],lower Aβ42
same,analgesic effect,[7],produced an analgesic effect
COc1ccc2cc([C@H](C)C(=O)O)ccc2c1 [Naproxen],efficacy for treating AD,[2],failed to show efficacy
